Reference: patent publication US20100216779A1 (GLAXOSMITHKLINE LLC, priority 2007, published 2010)

Tested on: various cell lines of different tumor origins
Assay: Inhibition of cell proliferation, InCell Analyzer assay
Assay type: cell-based
Experimental: C. Inhibition of Cell Proliferation
For InCell Analyser assay, various cell lines of different tumor origins were grown to 70-80% confluency in appropriate culture media containing 10% fetal bovine serum at 37° C. in a 5% CO2 incubator. On day-1, cells were seeded at 2 densities in 384-well plates and incubated at 37° C. overnight. Stock compound plates were prepared in advance which contained dimethyl sulfoxide (DMSO) alone and a 9-point half-log decreasing dose range of the compound of Example 22 in DMSO. The compound plates were stored at −80° C. and each plate was only thawed once and used. On day 0, the main assay plates received compound or DMSO via a sonic delivery system (ECHO). The highest final concentration of compound of the dose range in the culture plates was 10 uM. These plates were cultured at 37° C. for 3 days. […] On day 3, the compound treated plates were stained and fixed to measure proliferation, apoptosis, and mitotic index using an InCell1000 analyser. A nuclear stain was used to identify cells in the wells. By counting the number of nuclei, the proliferation index of compound treated groups were calculated as a percentage relative to the DMSO control, which was set to 100%. The IC50 values were calculated using model 205 in ExcelFit.

Measured: IC50

COc1cc(N2CCC(N3CCCCC3)CC2)ccc1Nc1nccc(-c2c(-c3cccc(C(=O)Nc4c(F)cccc4F)c3)nc3ccccn23)n1 [Example 22, 3-[3-(2-{[4-(1,4′-bipiperidin-1′-yl)-2-(methyloxy)phenyl]amino}-4-pyrimidinyl)imidazo[1,2-a]pyridin-2-yl]-N-(2,6-difluorophenyl)benzamide]
1 to 5 µM: A7, Skin | AGS, Stomach | B-cell, BC-1, lymphoma - B cell unspecified | B-cell, BC-2, lymphoma - B cell unspecified | B-cell, BC-3, lymphoma - B cell unspecified | B-cell, DB, lymphoma - diffuse large B cell | C3A, Liver | C32TG, Skin | C-4I, Cervix | DK-MG, glioma | ES2, Ovary | GCT, Sarcoma | HN5, H&N | Homo sapiens, 639-V, Bladder | Homo sapiens, 647-V, Bladder | Homo sapiens, 769-P, Kidney | Homo sapiens, 786-0, 786-0, Kidney | Homo sapiens, A101D, Skin | Homo sapiens, A 172, A172, glioma | Homo sapiens, A204, A204, Sarcoma - rhabdomyosarcoma | Homo sapiens, A498, A-498, Kidney | Homo sapiens, A-375, A375, Skin | Homo sapiens, A-427, A427, Lung | Homo sapiens, ACHN, Kidney | Homo sapiens, AN3-CA, AN3CA, Uterus | Homo sapiens, ARH-77, ARH-77, Myeloma - plasma cell | Homo sapiens, BPH-1, BPH1, Prostate | Homo sapiens, BT-20, BT-20, Breast | Homo sapiens, BT-474, BT474, Breast | Homo sapiens, BV-173, BV-173, CML blast phase | Homo sapiens, BeWo, Placenta | Homo sapiens, C-4-II, C-4II, Cervix | Homo sapiens, C-33-A, C-33A, Cervix | Homo sapiens, CAKI-2, Caki-2, Kidney | Homo sapiens, CAL-54, CAL-54, Kidney | Homo sapiens, CAL-62, CAL-62, Thyroid | Homo sapiens, CCF-STTG1, CCF-STTG1, glioma | Homo sapiens, CGTH-W-1, CGTH-W-1, Thyroid | Homo sapiens, CHL-1, CHL-1, Skin | Homo sapiens, CRO-AP2, CRO-AP2, lymphoma - B cell unspecified | Homo sapiens, Caov-3, CAOV-3, Ovary | Homo sapiens, Capan-2, Capan-2, Pancreas | Homo sapiens, D283 Med, D283Med, medulloblastoma | Homo sapiens, DU-4475, DU4475, Breast | Homo sapiens, Detroit 562, Detroit562, H&N | Homo sapiens, EFM-19, EFM-19, Breast | Homo sapiens, EKVX, Lung | Homo sapiens, FaDu, H&N | Homo sapiens, G-401, G-401, kidney | Homo sapiens, G-402, G-402, Kidney | Homo sapiens, HCC38, HCC38, Breast | Homo sapiens, HCC70, HCC70, Breast | Homo sapiens, HCC1143, HCC1143, Breast | Homo sapiens, HCC1395, HCC1395, Breast | Homo sapiens, HCC1954, HCC1954, Breast | Homo sapiens, HCC 2998, HCC-2998, Colon | Homo sapiens, HEC-1B, HEC-1-B, Uterus | Homo sapiens, HMCB, Skin | Homo sapiens, HOP-92, HOP-92, Lung | Homo sapiens, Hep3B, Liver | Homo sapiens, HepG2, HepG2, Liver | Homo sapiens, HuT78, Hut78, lymphoma - cutaneous T cell | Homo sapiens, J-RT3-T3-5, J.RT3-T3.5, acute lymphoblastic leukaemia | Homo sapiens, LS174T, Colon | Homo sapiens, MDA-MB-175-VII, Breast | Homo sapiens, MDA-MB-231, MDA-MB-231, Breast | Homo sapiens, MDA-MB-435, MDA-MB-435, Breast (Melanoma) | Homo sapiens, MDA-MB-453, MDA-MB-453, Breast | Homo sapiens, MDA-MB-468, MDA-MB-468, Breast | Homo sapiens, MOLT-16, MOLT-16, acute lymphoblastic leukaemia | Homo sapiens, MV4-11, MV-4-11, acute leukaemia of ambiguous lineage | Homo sapiens, NCI-H69, NCI-H69, Lung | Homo sapiens, NCI-H82, NCI-H82, Lung | Homo sapiens, NCI-H209, NCI-H209, Lung | Homo sapiens, NCI-H292, NCI-H292, Lung | Homo sapiens, NCI-H460, NCI-H460, Lung | Homo sapiens, NCI-H520, NCI-H520, Lung | Homo sapiens, NCI-H522, NCI-H522, Lung | Homo sapiens, NCI-H661, NCI-H661, Lung | Homo sapiens, NCI-H727, NCI-H727, Lung | Homo sapiens, NCI-H747, NCI-H747, Colon | Homo sapiens, NCI/ADR-RES, Breast | Homo sapiens, OVCAR-4, OVCAR-4, Ovary | Homo sapiens, OVCAR-8, OVCAR-8, Ovary | Homo sapiens, RL95-2, RL95-2, Uterus | Homo sapiens, RPMI-2650, RPMI2650, H&N | Homo sapiens, RPMI-6666, RPMI6666, lymphoma - Hodgkin | Homo sapiens, RXF 393, RXF393, Kidney | Homo sapiens, Raji, lymphoma - Burkitt | Homo sapiens, SCC-4, SCC-4, H&N | Homo sapiens, SCaBER, Bladder | Homo sapiens, SF-268, SF-268, glioma | Homo sapiens, SHP77, SHP-77, Lung | Homo sapiens, SK-BR-3, SK-BR-3, Breast | Homo sapiens, SK-LMS-1, SK-LM-S1, Sarcoma | Homo sapiens, SK-MEL-28, SK-MEL-28, Skin | Homo sapiens, SK-N-AS, neuroblastoma | Homo sapiens, SK-N-DZ, neuroblastoma | Homo sapiens, SK-UT-1, SK-UT-1, Sarcoma | Homo sapiens, SN12C, Kidney | Homo sapiens, SNU-182, SNU-182, Liver | Homo sapiens, SNU-387, SNU-387, Liver | Homo sapiens, SNU-398, SNU-398, Liver | Homo sapiens, SNU-423, SNU-423, Liver | Homo sapiens, SNU-475, SNU-475, Liver | Homo sapiens, ST486, ST486, lymphoma - Burkitt | Homo sapiens, SW480, SW480, Colon | Homo sapiens, SW756, SW756, Cervix | Homo sapiens, SW872, SW872, Sarcoma | Homo sapiens, SW1088, SW1088, glioma | Homo sapiens, SW1990, SW1990, Pancreas | Homo sapiens, SW-620, SW620, Colon | Homo sapiens, SiHa, Cervix | Homo sapiens, T47D, T-47D, Breast | Homo sapiens, THP-1, THP-1, AML | Homo sapiens, TK-10, TK-10, Kidney | Homo sapiens, U2OS, U-2OS, Sarcoma | Homo sapiens, U-251, U251, glioma | Homo sapiens, UACC-62, UACC-62, Skin | Homo sapiens, UACC-257, UACC-257, Skin | Homo sapiens, UO-31, UO-31, Kidney | J82, Bladder | JAR, Placenta | KHOS-240S, Sarcoma | KLE, Uterus | KPL-1, KPL-1, Breast | M14, Skin | MC-CAR, #N/A | MX-1, Breast | NALM-1, CML blast phase | RL, lymphoma - non-Hodgkin | SCLC-3, Lung | SH-4, Skin | SKO-007, SKO-007, Myeloma | SR, lymphoma - large cell immunoblastic | SW579, SW579, Thyroid | T-cell, MJ, lymphoma - cutaneous T cell | TO 175.T, TO175.T, Skin | U266B1, Myeloma
< 1 µM: CML-T1, CML-T1, CML blast phase | HOS, Sarcoma | Homo sapiens, A673, A673, Sarcoma | Homo sapiens, A2780, A2780, Ovary | Homo sapiens, A-431, A-431, Skin | Homo sapiens, ASPC1, AsPC-1, Pancreas | Homo sapiens, BE(2)-C, BE(2)C, Brain | Homo sapiens, BFTC-905, BFTC-905, Bladder | Homo sapiens, CAPAN-1, Capan-1, Pancreas | Homo sapiens, CHP-212, CHP-212, neuroblastoma | Homo sapiens, GDM-1, GDM-1, AML | Homo sapiens, HPAC, Pancreas | Homo sapiens, HT-29, HT-29, Colon | Homo sapiens, HT-1080, HT-1080, Sarcoma - fibrosarcoma | Homo sapiens, IGROV-1, IGROV1, Ovary | Homo sapiens, JEG-3, JEG-3, Placenta | Homo sapiens, LS-1034, LS1034, Colon | Homo sapiens, MC-IXC, neuroblastoma | Homo sapiens, MCF7, MCF7, Breast | Homo sapiens, MCF-10A, MCF10a, Breast (Normal) | Homo sapiens, MIA PaCa-2, MiaPaCa, Pancreas | Homo sapiens, NCI-H358, NCI-H358, Lung | Homo sapiens, NCI-H526, NCI-H526, Lung | Homo sapiens, NCI-H630, NCI-H630, Rectum | Homo sapiens, NCI-H716, NCI-H716, Colon | Homo sapiens, NCI-N87, NCI-N87, Stomach | Homo sapiens, OVCAR-5, OVCAR-5, Ovary | Homo sapiens, RPMI-8226, RPMI8226, Myeloma | Homo sapiens, RWPE-1, RWPE-1, Prostate | Homo sapiens, SAOS-2, SaOS-2, Sarcoma | Homo sapiens, SCC-25, SCC-25, H&N | Homo sapiens, SJRH30, SJRH30, Sarcoma - rhabdomyosarcoma | Homo sapiens, SK-N-FI, neuroblastoma | Homo sapiens, SW48, SW48, Colon | Homo sapiens, SW 954, SW954, Vulva | Homo sapiens, SW 962, SW962, Vulva | Homo sapiens, SW1417, SW1417, Colon | Homo sapiens, SW1463, SW1463, Rectum | Homo sapiens, SW-403, SW403, Colon | MT-3, Breast | NCI-H322, NCI-H322, Lung | RD-ES, Sarcoma | TE 381.T, TE381.T, Sarcoma - rhabdomyosarcoma
> 5 µM: 5637, Bladder | CEM/C1, CEM/C1, acute lymphoblastic leukaemia | CESS, AML | COLO 704, COLO-704, Ovary | CRO-AP5, CRO-AP5, lymphoma - B cell unspecified | EM-2, CML blast phase | H4, glioma | HT-3, Cervix | Homo sapiens, BHT-101, BHT-101, Thyroid | Homo sapiens, BXPC-3, BxPC-3, Pancreas | Homo sapiens, CAKI-1, Caki-1, Kidney | Homo sapiens, CAL-27, Cal27, H&N | Homo sapiens, COLO-829, Colo-829, Skin | Homo sapiens, DBTRG-05MG, glioma | Homo sapiens, DoTc2-4510, DoTc2-4510, Cervix | Homo sapiens, HCC1937, HCC1937, Breast | Homo sapiens, HCC2157, HCC2157, Breast | Homo sapiens, HCC2218, HCC2218, Breast | Homo sapiens, HEC-1-A, Uterus | Homo sapiens, HEL 92.1.7, HEL-92.1.7, erythroleukemia | Homo sapiens, HOP-62, HOP-62, Lung | Homo sapiens, HPAF-II, HPAFII, Pancreas | Homo sapiens, HT1197, HT1197, Bladder | Homo sapiens, HT-1376, HT1376, Bladder | Homo sapiens, HeLa, Cervix | Homo sapiens, Hs746T, Stomach | Homo sapiens, HuP-T4, HuP-T4, Pancreas | Homo sapiens, K562, K-562, CML | Homo sapiens, KATO III, KATOIII, Stomach | Homo sapiens, KM12, KM12, Colon | Homo sapiens, LOX IMVI, Skin | Homo sapiens, MES-SA, Sarcoma | Homo sapiens, Malme-3M, Skin | Homo sapiens, NCI-H146, NCI-H146, Lung | Homo sapiens, NCI-H295R, Cervix | Homo sapiens, NCI-H596, NCI-H596, Lung | Homo sapiens, NCI-H1395, NCI-H1395, Lung | Homo sapiens, NCI-H2087, NCI-H2087, Lung | Homo sapiens, OV-90, OV-90, Ovary | Homo sapiens, OVCAR-3, OVCAR-3, Ovary | Homo sapiens, SCC-9, SCC-9, H&N | Homo sapiens, SCC-15, SCC-15, H&N | Homo sapiens, SF-295, SF-295, glioma | Homo sapiens, SF-539, SF-539, glioma | Homo sapiens, SK-MEL3, SK-MEL-3, Skin | Homo sapiens, SK-MEL-1, SK-MEL-1, Skin | Homo sapiens, SK-NEP-1, SK-NEP-1, Kidney | Homo sapiens, SK-OV-3, SK-OV-3, Ovary | Homo sapiens, SNB-19, SNB-19, glioma | Homo sapiens, SNB-75, SNB-75, glioma | Homo sapiens, SNU1, SNU-1, Stomach | Homo sapiens, SNU-5, SNU-5, Stomach | Homo sapiens, SNU-16, SNU-16, Stomach | Homo sapiens, SNU-449, SNU-449, Liver | Homo sapiens, SW684, SW684, Sarcoma | Homo sapiens, SW780, SW780, Bladder | Homo sapiens, SW837, SW837, Colon | Homo sapiens, SW948, SW948, Colon | Homo sapiens, SW982, SW982, Sarcoma | Homo sapiens, SW 1116, SW1116, Colon | Homo sapiens, SW1353, SW1353, Sarcoma | Homo sapiens, SW1783, SW1783, glioma | Homo sapiens, U138-MG, U-138MG, glioma | Homo sapiens, U-87 MG, glioma | Homo sapiens, UACC-812, UACC-812, Breast | Homo sapiens, UMUC3, UM-UC-3, Bladder | Homo sapiens, WM-115, WM115, Skin | Homo sapiens, YAPC, Pancreas | Homo sapiens, ZR-75-1, ZR-75-1, Breast | ML-2, AML | NCI-H660, NCI-H660, Prostate | RD, Sarcoma - rhabdomyosarcoma | SCC12, SCC-12, H&N | SCC-13, SCC-13, H&N | T24, Bladder | Y79, Eye
